Measurements reported in patent EP1370276B1, “INTERCELLULAR COMMUNICATION FACILITATING COMPOUNDS AND THEIR MEDICAL USE” (Zealand Pharma A/S, priority 2001, dated 2002).
pEC50, pIC50: −log10 of the molar value. Where a SMILES comes first, the peptide text is derived from it. [ ]: non-standard residue; d: D form. The star is where a group is joined. dTyr(3,5-I2) = N[C@H](Cc1cc(I)c(O)c(I)c1)C(=O)O; Dnp = O=[N+]([O-])c1ccc(*)c([N+](=O)[O-])c1; X1 = [N-]=[N+]=Nc1cc(O)c(C(=O)*)cc1I; Hyp = O=C(O)[C@@H]1C[C@@H](O)CN1; dHyp = O=C(O)[C@H]1C[C@H](O)CN1; Sar = CNCC(=O)O

Key:
[1] = system: calcium-induced arrythmias; assay: Calcium-induced arrhythmia model in mice (time to 2nd degree AV-block); format: in vivo; design: CaCl2 mice Score: scale not given here; conditions: for CaCl2 mice Score / CaCl2 mice In vivo, %: calcium chloride induced arrythmia model; for CaCl2 mice Score: no key for the score; for In vivo activity: maximal effect, increase in time until 2nd degree AV-block relative to vehicle, i.v.
Experimental: The antiarrhythmic effects of compounds of this invention were tested in an in vivo model of calcium-induced arrythmias according to the model of Lynch et al. ^[37]. […]. Commercial solutions of hypnorm and midazolam were diluted 1:1 in distilled water and one part diluted Hypnorm® is mixed with one part diluted midazolam.
The anaesthesia was induced by s.c. administration in a dose of […]. An i.v. cannula was inserted into the tail vein. The lead II ECG signal was recorded continuously by positioning of a stainless steel ECG electrodes on the right forelimb and on the left hind limb. The ground electrode was placed on the right hind limb. The signal was amplified (x 5.000-10.000) and filtered (0.1-150 Hz) via a Hugo Sachs Electronic model 689 ECG module. The analogue signal was digitised via a 12 bit data acquisition board (Data Translation model DT321) and sampled at 1000 Hz using the Notocord HEM 3.1 software for Windows NT. After a 10-min equilibration period, the test sample of drug was injected into the tail vein. Mice pre-treated with vehicle were tested as a measure of the control level in untreated animals. The injection volume was 100 µl in all experiments. Infusion of CaCl2 (30 mg/ml, 0.1 ml/min ≈ 100 mg/kg/min (calciumchlorid-2-hydrat, Riedel-de Haën, Germany)) was started 3 min after i.v. administration of drug or vehicle. The time lag to onset of 2nd degree AV-block was determined as the time from the start of CaCl2 infusion until the first arrhythmic event occured. An event of 2nd degree AV-block was defined as intermittent failure of the AV conduction characterised by a P-wave without the concomitant QRS complex.
Responses were expressed relative to the time until 2nd degree AV-block occurred in vehicle treated mice.

CHO cells = assay: In situ binding of [125I]AAP10 on intact CHO cells; conditions: overnight at 4° C
Experimental: CHO cells are seeded in 24-multi well dishes in a density of 7,900 cells/cm^2 (∼ 15,000 cells/well) and grown for 3 Days In Vitro (DIV) in 1 ml/well of F-12K Nutrient Mixture supplemented with 10% Foetal Calf Serum (FCS) and 1000 units penicillin/1000 µg streptomycin (pen/strep) in an atmosphere of 5% CO2 and 100% humidity at 37° C. The cell density has at that time increased to 295,000 cells/cm^2 (152 pgprot/cell ∼ 85 µgprot/well).
On the day of analysis cells are removed from the incubator and each well is washed twice with, depending on the experiment, either 2 ml pre-warmed (37 °C) or ice-cold (0 °C) D-PBS to remove serum. It is important to keep the period to a minimum during which cells are left without physiological solutions to avoid that they dry out during washing procedures. The cold washed cells are used directly for binding assays while the warm washed cells are used for experiments with glucose and oxygen deprivation.
The in situ binding is performed by a modified protocol based on the description by Koenig. […] Cells incubate overnight at 4° C to reach equilibrium. Each well, one at the time, is then rinsed rapidly with 2 x 1 ml D-PBS and left to dry.
0.25 ml of 0.5 % Triton-X-100 (v/v) is added to each well and cells left for at least 1 h to solubilize. The extract is transferred to counting vials, the wells rinsed with 0.25 ml water and the rinse extract added to the corresponding vials. The vials are counted in a γ-counter. Table 3. In situ binding, IC50 (nM).

[2] = molecular target: murine heart tissue preparations; assay: Displacement of [125I]AAP10 from murine heart tissue preparations; format: binding, mice; conditions: displacement of 0.8 nM [125I]AAP10, filtrate; read-out: Filtrate IC50
Experimental: Hearts are excised from mice (Balb/cJ, 20 g), rinsed twice in ice-cold (0°C) 0.32 M sucrose and homogenized on ice in 10 volumes of sucrose with an Ultra Turrax homogeniser (1000 rpm) for 2 minutes. The homogenate is centrifuged at 1000 gmea" for 10 minutes at 4° C and the supernatant collected and filtrated through 4 layers of gauze. The filtrate is then centrifuged at 50,000 gmean for 45 min at 4° C and the pellet resuspended in 10 volorg. wet weight ice-cold distilled water and incubated for 60 min at 0° C and re-centrifuged at 50,000 gmean at 45 min at 4° C. The resulting pellet is resuspended in 2 vol org. wet weight of PBS (Phosphate Buffered Saline) and stored at - 80° C until use.

[3] = system: cAMP formation in CHO cells; assay: Inhibition of forskoline stimulated cAMP formation in CHO cells; format: cell-based; conditions: 10 µM forskoline, 20 min, cells pre-treated with glucose and oxygen deprivation
Experimental: CHO cells are seeded in 96-well microtiter plates in a density of 6,000 cells/cm^2 (∼ 2,000 cells/well) and grown for 4 days in vitro in 200 µl/well of growth media as described in the previous section.
On the day of analysis cells are removed from the incubator and washed twice with 200 µl pre-warmed (37°C) D-PBS (pH 7.2) to remove serum. Cells are incubated for 10 min in glucose free D-PBS and an N2-atmosphere as described in the previous section.
CHO cells are incubated at 37° C in D-PBS (pH 7.2) containing 6 mM glucose, 2.0 mM IBMX (phospodiesterase blocker), 10 µM forskoline (stimulates cAMP formation) and increasing concentrations of test peptide. The reaction is stopped after 20 min by addition of 20 µl 0.5 M HCl and left for at least 20 min at room temperature.
The content of cAMP is analysed by mixing 20 µl of the acid cell extract into FlashPlate™ wells (NEN assay kit SMP001) containing 180 µl [^12SI]cAMP tracer solution. FlashPlates™ are incubated overnight at 4° C and plate bound radioactivity counted in TopCount (Packard Instrument). Data are calculated as described in the previous section.

Compound	CaCl2 mice Score [1]	CaCl2 mice In vivo, % [1]	further results
3-(4-hyd roxyphenyl)propionyl-Pro-Hyp-Gly-Ala-Gly-OH [HP5, reference compound]	2		In vivo activity [1]: ++ (++ refers to 30-50% increase in time until arrhythmia)
CC(=O)NCC(=O)N[C@@H](CC(=O)O)C(=O)N[C@@H](CC(N)=O)C(=O)N[C@@H](Cc1ccc(O)cc1)C(N)=O [Ac-G-D-N-Y-NH2] (Ac-GDNY-NH2)	1		
CC(=O)N[C@@H](Cc1ccc(O)cc1)C(=O)N[C@@H](CC(=O)O)C(=O)N[C@@H](CC(N)=O)C(=O)NCC(N)=O [Ac-Y-D-N-G-NH2] (Ac-YDNG-NH2)	1		
CC(=O)N[C@@H](Cc1ccc(O)cc1)C(=O)N[C@H](CC(N)=O)C(=O)NCC(=O)O [Ac-Y-DN-G-OH] (Ac-Tyr-[dN]-Gly-OH)	2		
CC(=O)N[C@@H](Cc1ccc(O)cc1)C(=O)N1CCC[C@H]1C(=O)N1C[C@H](O)C[C@H]1C(=O)NCC(=O)N[C@@H](C)C(=O)NCC(=O)O [Compound 1, Ac-Tyr-Pro-4Hyp-Gly-Ala-Gly-OH] (Ac-YP[Hyp]GAG-OH)	1		
CC(=O)N[C@H](Cc1cc(I)c(O)c(I)c1)C(=O)N1CCC[C@@H]1C(=O)N1C[C@@H](O)C[C@@H]1C(=O)NCC(=O)N[C@H](C)C(=O)NCC(N)=O [Compound 24] (Ac-[dTyr(3,5-I2)][dP][dHyp]G[dA]G-NH2)			pIC50 (CHO cells): 7.19
C[C@H](NC(=O)CNC(=O)[C@@H]1C[C@@H](O)CN1C(=O)[C@@H]1CCCN1C(=O)c1cc(I)c(N=[N+]=[N-])cc1O)C(=O)NCC(N)=O [Compound 32] (X1-P[Hyp]GAG-NH2)			pIC50 (CHO cells): 9.30
C[C@H](NC(=O)CN)C(=O)NCC(=O)N1C[C@H](O)C[C@H]1C(=O)N1CCC[C@H]1C(=O)N[C@@H](Cc1ccc(O)cc1)C(=O)N[C@@H](CC(N)=O)C(N)=O [H-AAP-10-Asn-NH2] (H-GAG[Hyp]PYN-NH2)	2		
NCC(=O)N[C@H](CC(N)=O)C(=O)N[C@@H](Cc1ccc(O)cc1)C(N)=O [H-G-DN-Y-NH2] (H-Gly-[dN]-Tyr-NH2)	2		
C[C@H](NC(=O)CN)C(=O)N(C)CC(=O)N1C[C@H](O)C[C@H]1C(=O)N1CCC[C@H]1C(=O)N[C@@H](Cc1ccc(O)cc1)C(N)=O [H-GA-Sar-Hyp-PY-NH2] (H-GA[Sar][Hyp]PY-NH2)	2	46 +/- 11%	
C[C@H](NC(=O)CN)C(=O)N[C@@H](CC(N)=O)C(=O)N[C@@H](Cc1ccc(O)cc1)C(N)=O [H-GANY-NH2] (H-GANY-NH2)	1		
NCC(=O)NCC(=O)N[C@@H](Cc1ccc(O)cc1)C(N)=O [H-GGY-NH2] (H-Gly-Gly-Tyr-NH2)	2		
NCC(=O)N[C@@H](CCCCNc1ccc([N+](=O)[O-])cc1[N+](=O)[O-])C(=O)N[C@@H](Cc1ccc(O)cc1)C(N)=O [H-GK(DNP)Y-NH2] (H-Gly-Lys(Dnp)-Tyr-NH2)	1		
C[C@H](NC(=O)CNC(=O)[C@H](CC(N)=O)NC(=O)[C@H](Cc1ccc(O)cc1)NC(=O)[C@@H]1CCCN1C(=O)[C@@H]1C[C@@H](O)CN1)C(=O)NCC(N)=O [H-HypPYNGAG-NH2] (H-[Hyp]PYNGAG-NH2)	2	34 +/- 10%	
CNCC(=O)N[C@@H](C)C(=O)N(C)CC(=O)N1C[C@H](O)C[C@H]1C(=O)N1CCC[C@H]1C(=O)N[C@@H](Cc1ccc(O)cc1)C(N)=O [H-Sar-A-Sar-Hyp-PY-NH2] (H-[Sar]A[Sar][Hyp]PY-NH2)	1	24 +/- 7%	
NC(=O)C[C@@H](NC(=O)[C@@H](N)Cc1ccc(O)cc1)C(=O)NCC(=O)O [H-Y-DN-G-OH] (H-Tyr-[dN]-Gly-OH)	2		
NC(=O)CNC(=O)[C@H](CC(N)=O)NC(=O)[C@@H](N)Cc1ccc(O)cc1 [H-YNG-NH2] (H-Tyr-Asn-Gly-NH2)	2		

Compound	CaCl2 mice Score [1]	CaCl2 mice In vivo, % [1]	further results
C[C@H](NC(=O)CN)C(=O)NCC(=O)N1CCC[C@@H]1C(=O)N[C@@H](C)C(=O)N[C@@H](Cc1ccc(O)cc1)C(N)=O [H-[D-Pro^4, Ala^5]AAP-10-NH2] (H-GAG[dP]AY-NH2)	1	29 +/- 12%	
AcGNY	2	46 +/- 9%	
CF3C(O)-AAP10-NH2	3		
Cyclo(retro-AAP-10-Asn)	2	59 +/- 9%	
GNY	2	58 +/- 10%	
H-AAP-10-K6-OH	3	64 +/- 10%	
H-DY-DN-G-NH2	1		
H-GAG-DHyp-DProY-NH2	2	49 +/- 6%	
H-GAG-DHypAY-NH2	1	29 +/- 9%	
H-GAGGPY-NH2 [H-GAGGPY-NH2]	2		
H-GP[Hyp]GAG-OH [AAP, reference compound]	2		pIC50 [2]: 8.92; pIC50 (CHO cells): 9.10; pEC50 [3]: 7.28; In vivo activity [1]: ++ (++ refers to 30-50% increase in time until arrhythmia)
H-[D-Hyp^4]AAP-10-NH2	1	28 +/- 10%	
HPP-PHypGAGKKKKKK-NH2	1	21 +/- 17%	
HPP-PHypGAGKKKKKK-OH	3	80 +/- 17%	
[Pro^4]AAP10-NH2	3		
des-Hyp^4-[Asn^5]AAP-10-NH2	2	53 +/- 15%	
